Measured values: PubChem BioAssay (NCI)
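Assay format: 96-well plates, 48-hour exposure. Here, GI50 denotes the concentration required for 50% inhibition of growth. The concentration for full growth arrest is given as TGI.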

How the values were obtained:
Assay in all cases: NCI tumour cell line growth inhibition, 48 h
[1] = system: MDA-N
[2] = system: HT29 colon
[3] = system: COLO 205 colon
[4] = system: DU-145 prostate
[5] = system: HCT-15 colon
[6] = system: HS 578T breast
[7] = system: NCI-H522 lung
[8] = system: T-47D breast
[9] = system: 786-0 renal
[10] = system: SK-MEL-28 melanoma
[11] = system: MOLT-4 leukemia
[12] = system: ACHN renal
[13] = system: HOP-62 NSCLC
[14] = system: HCT-116 colon
[15] = system: SF-539 CNS
[16] = system: SF-268 CNS
[17] = system: KM12 colon
[18] = system: NCI-H23 lung
[19] = system: MALME-3M melanoma
[20] = system: SN12C renal
[21] = system: TK-10 renal
[22] = system: UACC-257 melanoma
[23] = system: BT-549 breast
[24] = system: SF-295 CNS
[25] = system: SK-OV-3 ovarian
[26] = system: SK-MEL-5 melanoma
[27] = system: K-562 leukemia
[28] = system: NCI/ADR-RES ovarian
[29] = system: CAKI-1 renal
[30] = system: A498 renal
[31] = system: MDA-MB-435
[32] = system: A549 NSCLC
[33] = system: MDA-MB-231 breast
[34] = system: SNB-19 CNS
[35] = system: SW-620 colon
[36] = system: IGROV1 ovarian
[37] = system: RXF 393 renal
[38] = system: PC-3 prostate
[39] = system: OVCAR-8 ovarian
[40] = system: SR leukemia
[41] = system: CCRF-CEM leukemia
[42] = system: UACC-62 melanoma
[43] = system: OVCAR-3 ovarian
[44] = system: MCF7 breast
[45] = system: HCC-2998 colon
[46] = system: NCI-H460 lung
[47] = system: HOP-92 NSCLC
[48] = system: LOX IMVI melanoma
[49] = system: U251 CNS
[50] = system: SK-MEL-2 melanoma
[51] = system: OVCAR-4 ovarian
[52] = system: OVCAR-5 ovarian
[53] = system: UO-31 renal
[54] = system: RPMI-8226 leukemia
[55] = system: M14 melanoma
[56] = system: EKVX NSCLC
[57] = system: HL-60(TB) leukemia
[58] = system: NCI-H226 lung
[59] = system: SNB-75 CNS

SMILES: CCOC(=O)c1cc(C)n(CN(CCO)Cn2nc(C(=O)OCC)cc2C)n1
- TGI [1]: > 100 µM
- TGI [2]: 47.4 µM
- TGI [3]: 41.9 µM
- TGI [4]: 71.5 µM
- TGI [5]: 48.1 µM
- TGI [6]: > 100 µM
- TGI [7]: 52.1 µM
- TGI [8]: 72.3 µM
- TGI [9]: 49.7 µM
- TGI [10]: > 100 µM
- TGI [11]: > 100 µM
- TGI [12]: 55.6 µM
- TGI [13]: 62.9 µM
- TGI [14]: 37.7 µM
- TGI [15]: 33.6 µM
- TGI [16]: > 100 µM
- TGI [17]: > 100 µM
- TGI [18]: 53.8 µM
- TGI [19]: 96.1 µM
- TGI [20]: 79.2 µM
- TGI [21]: > 100 µM
- TGI [22]: > 100 µM
- TGI [23]: 68.7 µM
- TGI [24]: > 100 µM
- TGI [25]: > 100 µM
- TGI [26]: > 100 µM
- TGI [27]: 78.3 µM
- TGI [28]: 42.5 µM
- TGI [29]: > 100 µM
- TGI [30]: > 100 µM
- TGI [31]: > 100 µM
- TGI [32]: > 100 µM
- TGI [33]: 91.2 µM
- TGI [34]: > 100 µM
- TGI [35]: > 100 µM
- TGI [36]: > 100 µM
- TGI [37]: 43.9 µM
- TGI [38]: > 100 µM
- TGI [39]: 59.9 µM
- TGI [40]: 72.7 µM
- TGI [41]: 42.2 µM
- TGI [42]: 38.2 µM
- TGI [43]: 70.1 µM
- TGI [44]: 73.7 µM
- TGI [45]: 27.9 µM
- TGI [46]: > 100 µM
- TGI [47]: > 100 µM
- TGI [48]: 70.1 µM
- TGI [49]: > 100 µM
- TGI [50]: 36.8 µM
- TGI [51]: > 100 µM
- TGI [52]: 54.1 µM
- TGI [53]: 53.2 µM
- TGI [54]: 40.3 µM
- TGI [55]: 44 µM
- TGI [56]: > 100 µM
- TGI [57]: > 100 µM

SMILES: CCCCCC[n+]1noc(N)c1-c1ccc(-c2c(N)on[n+]2CCCCCC)cc1
- GI50 [1]: 1.78 µg/mL
- TGI [1]: 3.48 µg/mL
- GI50 [2]: 1.85 µg/mL
- TGI [2]: 4.01 µg/mL
- GI50 [3]: 1.66 µg/mL
- TGI [3]: 3.58 µg/mL
- GI50 [4]: 9.82 µg/mL
- TGI [4]: 24.4 µg/mL
- GI50 [5]: 2.59 µg/mL
- TGI [5]: 8.72 µg/mL
- GI50 [6]: 2.13 µg/mL
- TGI [6]: 5.06 µg/mL
- GI50 [7]: 1.99 µg/mL
- TGI [7]: 3.69 µg/mL
- GI50 [8]: 2.49 µg/mL
- TGI [8]: 6.28 µg/mL
- GI50 [9]: 1.61 µg/mL
- TGI [9]: 3.32 µg/mL
- GI50 [10]: 1.69 µg/mL
- TGI [10]: 3.13 µg/mL
- GI50 [11]: 2.36 µg/mL
- TGI [11]: 7.33 µg/mL
- GI50 [12]: 7.74 µg/mL
- TGI [12]: 20.7 µg/mL
- GI50 [13]: 7.64 µg/mL
- TGI [13]: 20.6 µg/mL
- GI50 [14]: 3.97 µg/mL
- TGI [14]: 14.3 µg/mL
- GI50 [15]: 1.77 µg/mL
- TGI [15]: 3.42 µg/mL
- GI50 [16]: 7.82 µg/mL
- TGI [16]: 22.4 µg/mL
- GI50 [17]: 3.97 µg/mL
- TGI [17]: 14.6 µg/mL
- GI50 [18]: 14.1 µg/mL
- TGI [18]: 27.9 µg/mL
- GI50 [19]: 1.81 µg/mL
- TGI [19]: 3.33 µg/mL
- GI50 [20]: 6.2 µg/mL
- TGI [20]: 17.3 µg/mL
- GI50 [21]: 2.81 µg/mL
- TGI [21]: 8.51 µg/mL
- GI50 [22]: 1.73 µg/mL
- TGI [22]: 3.34 µg/mL
- GI50 [23]: 3.83 µg/mL
- TGI [23]: 14 µg/mL
- GI50 [24]: 1.88 µg/mL
- TGI [24]: 3.73 µg/mL
- GI50 [25]: 3.37 µg/mL
- TGI [25]: 11 µg/mL
- GI50 [26]: 1.66 µg/mL
- TGI [26]: 3.04 µg/mL
- GI50 [27]: 1.79 µg/mL
- TGI [27]: 3.8 µg/mL
- GI50 [28]: 12.5 µg/mL
- TGI [28]: 25.6 µg/mL
- GI50 [29]: 2.18 µg/mL
- TGI [29]: 5.22 µg/mL
- GI50 [30]: 6.03 µg/mL
- TGI [30]: 16 µg/mL
- GI50 [31]: 1.76 µg/mL
- TGI [31]: 3.23 µg/mL
- GI50 [58]: 14.2 µg/mL
- TGI [58]: 28.2 µg/mL
- GI50 [32]: 5.25 µg/mL
- TGI [32]: 13.9 µg/mL
- GI50 [33]: 3.3 µg/mL
- TGI [33]: 9.87 µg/mL
- GI50 [34]: 9.62 µg/mL
- TGI [34]: 22.8 µg/mL
- GI50 [35]: 2.32 µg/mL
- TGI [35]: 6.14 µg/mL
- GI50 [36]: 6.74 µg/mL
- TGI [36]: 20.4 µg/mL
- GI50 [38]: 3.46 µg/mL
- TGI [38]: 16.8 µg/mL
- GI50 [39]: 2.6 µg/mL
- TGI [39]: 9.53 µg/mL
- GI50 [40]: 1.89 µg/mL
- TGI [40]: 4.87 µg/mL
- GI50 [41]: 5.09 µg/mL
- TGI [41]: 10.1 µg/mL
- GI50 [42]: 1.94 µg/mL
- TGI [42]: 3.51 µg/mL
- GI50 [43]: 12.7 µg/mL
- TGI [43]: 26.1 µg/mL
- GI50 [44]: 1.97 µg/mL
- TGI [44]: 4.1 µg/mL
- GI50 [45]: 1.45 µg/mL
- TGI [45]: 2.79 µg/mL
- GI50 [46]: 2.03 µg/mL
- TGI [46]: 4.7 µg/mL
- GI50 [47]: 1.09 µg/mL
- TGI [47]: 5.91 µg/mL
- GI50 [48]: 1.95 µg/mL
- TGI [48]: 4.21 µg/mL
- GI50 [49]: 1.71 µg/mL
- TGI [49]: 3.47 µg/mL
- GI50 [50]: 1.61 µg/mL
- TGI [50]: 3.1 µg/mL
- GI50 [51]: 2.62 µg/mL
- TGI [51]: 14.9 µg/mL
- GI50 [52]: 5.54 µg/mL
- TGI [52]: 14.6 µg/mL
- GI50 [53]: 1.89 µg/mL
- TGI [53]: 4.46 µg/mL
- GI50 [54]: 1.98 µg/mL
- TGI [54]: 4.71 µg/mL
- GI50 [59]: 3.41 µg/mL
- TGI [59]: 11.3 µg/mL
- GI50 [55]: 1.9 µg/mL
- TGI [55]: 3.43 µg/mL
- GI50 [56]: 7.71 µg/mL
- TGI [56]: 23.2 µg/mL
- GI50 [57]: 1.61 µg/mL
- TGI [57]: 3.07 µg/mL
